Source: US9492471B2, “Methods of treating a disease or disorder associated with Bruton'S Tyrosine Kinase” (Celgene Avilomics Research, Inc., priority 2013, dated 2016)
Like-named read-outs stand apart in the source and are kept apart here.

Columns and labels:
Experiment in all cases: HotSpot kinase profiling
Assay type in all cases: biochemical
[1] = target: T1, PAK6 (Homo sapiens, UniProt Q9NQU5)
T1 construct: purchased Reaction Biology Corp
Summary of the method: (§1)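 Activity is measured by radiolabel transfer captured on P81 filters after a 2 h room-temperature reaction of kinase, substrate and cofactors. Values are percent inhibition against DMSO.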

[2] = target: T2, DAPK1 (Homo sapiens, UniProt P53355)
T2 construct: purchased Reaction Biology Corp
T2 sequence (P53355 whole entry): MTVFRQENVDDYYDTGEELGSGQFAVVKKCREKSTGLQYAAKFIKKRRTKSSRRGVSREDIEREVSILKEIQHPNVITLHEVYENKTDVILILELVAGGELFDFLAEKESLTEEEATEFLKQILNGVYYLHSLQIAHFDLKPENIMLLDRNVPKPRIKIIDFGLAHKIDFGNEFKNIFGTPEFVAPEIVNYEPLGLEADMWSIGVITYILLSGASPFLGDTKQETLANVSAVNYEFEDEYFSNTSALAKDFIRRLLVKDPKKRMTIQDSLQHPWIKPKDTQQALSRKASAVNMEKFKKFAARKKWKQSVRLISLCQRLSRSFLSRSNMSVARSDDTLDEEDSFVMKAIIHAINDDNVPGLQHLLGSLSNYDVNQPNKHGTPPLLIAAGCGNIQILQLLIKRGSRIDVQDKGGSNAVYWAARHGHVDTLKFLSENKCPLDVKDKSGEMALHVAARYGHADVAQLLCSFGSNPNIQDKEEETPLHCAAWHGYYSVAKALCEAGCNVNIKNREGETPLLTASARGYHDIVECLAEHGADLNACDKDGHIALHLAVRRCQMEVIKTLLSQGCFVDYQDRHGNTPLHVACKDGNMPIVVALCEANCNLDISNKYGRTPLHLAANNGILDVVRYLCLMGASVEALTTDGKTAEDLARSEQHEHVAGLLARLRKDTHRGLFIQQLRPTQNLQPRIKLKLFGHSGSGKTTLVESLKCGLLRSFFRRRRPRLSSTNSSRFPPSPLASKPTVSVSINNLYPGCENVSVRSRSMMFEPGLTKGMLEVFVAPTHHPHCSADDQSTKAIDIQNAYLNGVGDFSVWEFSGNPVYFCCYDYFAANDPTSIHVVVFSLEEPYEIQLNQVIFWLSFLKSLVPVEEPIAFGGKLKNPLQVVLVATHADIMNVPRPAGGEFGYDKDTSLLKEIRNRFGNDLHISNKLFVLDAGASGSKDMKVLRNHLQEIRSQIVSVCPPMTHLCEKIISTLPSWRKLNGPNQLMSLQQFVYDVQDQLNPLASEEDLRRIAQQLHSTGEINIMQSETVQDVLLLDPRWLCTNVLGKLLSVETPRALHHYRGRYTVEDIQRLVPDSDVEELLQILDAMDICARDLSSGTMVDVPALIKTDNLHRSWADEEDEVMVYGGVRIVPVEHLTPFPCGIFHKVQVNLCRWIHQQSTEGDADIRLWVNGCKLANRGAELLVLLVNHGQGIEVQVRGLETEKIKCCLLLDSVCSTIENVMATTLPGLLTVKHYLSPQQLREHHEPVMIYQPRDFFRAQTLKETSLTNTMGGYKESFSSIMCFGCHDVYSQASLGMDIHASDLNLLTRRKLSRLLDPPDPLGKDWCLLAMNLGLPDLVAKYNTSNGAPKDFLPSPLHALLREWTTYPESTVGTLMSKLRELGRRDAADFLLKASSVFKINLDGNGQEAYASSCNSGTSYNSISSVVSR
Summary of the method: as §1

[3] = target: T3, DYRK2 (Homo sapiens, UniProt Q92630)
T3 construct: purchased Reaction Biology Corp
T3 sequence (Q92630 1-601): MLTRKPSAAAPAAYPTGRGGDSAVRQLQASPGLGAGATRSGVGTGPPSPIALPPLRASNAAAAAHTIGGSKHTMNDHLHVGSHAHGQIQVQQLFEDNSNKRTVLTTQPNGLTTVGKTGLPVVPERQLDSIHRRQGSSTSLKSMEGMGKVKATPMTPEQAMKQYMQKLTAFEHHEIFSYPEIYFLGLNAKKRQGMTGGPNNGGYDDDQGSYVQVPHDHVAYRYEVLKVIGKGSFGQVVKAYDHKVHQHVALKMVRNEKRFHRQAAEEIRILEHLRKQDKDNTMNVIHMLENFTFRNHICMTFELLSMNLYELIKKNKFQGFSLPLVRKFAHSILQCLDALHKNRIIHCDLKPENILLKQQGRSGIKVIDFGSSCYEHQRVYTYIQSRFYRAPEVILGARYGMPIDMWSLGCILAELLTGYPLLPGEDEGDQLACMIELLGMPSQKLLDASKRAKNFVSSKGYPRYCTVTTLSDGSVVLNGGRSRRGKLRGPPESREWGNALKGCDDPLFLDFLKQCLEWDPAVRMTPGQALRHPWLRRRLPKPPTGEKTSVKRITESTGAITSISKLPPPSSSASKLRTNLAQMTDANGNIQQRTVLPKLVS
Summary of the method: as §1

[4] = target: T4, LATS1 (Homo sapiens, UniProt O95835)
T4 construct: purchased Reaction Biology Corp
T4 sequence (O95835 1-1130): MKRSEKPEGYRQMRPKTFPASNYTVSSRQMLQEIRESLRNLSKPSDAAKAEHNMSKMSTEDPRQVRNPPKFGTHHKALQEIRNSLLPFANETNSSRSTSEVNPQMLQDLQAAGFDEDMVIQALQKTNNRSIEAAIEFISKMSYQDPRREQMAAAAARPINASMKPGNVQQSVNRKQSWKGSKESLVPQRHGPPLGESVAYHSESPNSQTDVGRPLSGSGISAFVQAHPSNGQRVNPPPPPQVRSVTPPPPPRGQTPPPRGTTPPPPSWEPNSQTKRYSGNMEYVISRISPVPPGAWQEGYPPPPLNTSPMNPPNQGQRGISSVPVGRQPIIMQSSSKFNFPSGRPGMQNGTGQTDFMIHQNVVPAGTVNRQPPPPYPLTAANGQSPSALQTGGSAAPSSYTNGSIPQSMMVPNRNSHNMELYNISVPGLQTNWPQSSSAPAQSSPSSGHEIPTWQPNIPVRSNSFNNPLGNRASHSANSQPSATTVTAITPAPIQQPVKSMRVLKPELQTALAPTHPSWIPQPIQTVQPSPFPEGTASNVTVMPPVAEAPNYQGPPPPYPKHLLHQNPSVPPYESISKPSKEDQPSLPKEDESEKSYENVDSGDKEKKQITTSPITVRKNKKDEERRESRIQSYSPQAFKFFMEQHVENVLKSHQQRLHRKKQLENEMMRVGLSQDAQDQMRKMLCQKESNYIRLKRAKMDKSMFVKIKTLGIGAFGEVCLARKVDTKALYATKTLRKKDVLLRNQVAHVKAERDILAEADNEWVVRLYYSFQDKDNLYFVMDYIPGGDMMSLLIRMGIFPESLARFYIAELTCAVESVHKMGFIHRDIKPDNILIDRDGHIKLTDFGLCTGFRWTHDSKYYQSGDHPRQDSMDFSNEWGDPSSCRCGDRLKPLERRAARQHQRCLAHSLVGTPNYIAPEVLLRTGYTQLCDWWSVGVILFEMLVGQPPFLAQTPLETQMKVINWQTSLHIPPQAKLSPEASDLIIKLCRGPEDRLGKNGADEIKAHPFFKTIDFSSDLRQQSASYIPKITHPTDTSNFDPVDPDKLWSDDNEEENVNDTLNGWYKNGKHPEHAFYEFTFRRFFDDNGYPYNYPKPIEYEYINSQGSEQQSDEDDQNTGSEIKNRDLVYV
Summary of the method: as §1

[5] = target: T5, CK1a1 (Homo sapiens, UniProt P48729)
T5 construct: purchased Reaction Biology Corp
T5 sequence (P48729 whole entry): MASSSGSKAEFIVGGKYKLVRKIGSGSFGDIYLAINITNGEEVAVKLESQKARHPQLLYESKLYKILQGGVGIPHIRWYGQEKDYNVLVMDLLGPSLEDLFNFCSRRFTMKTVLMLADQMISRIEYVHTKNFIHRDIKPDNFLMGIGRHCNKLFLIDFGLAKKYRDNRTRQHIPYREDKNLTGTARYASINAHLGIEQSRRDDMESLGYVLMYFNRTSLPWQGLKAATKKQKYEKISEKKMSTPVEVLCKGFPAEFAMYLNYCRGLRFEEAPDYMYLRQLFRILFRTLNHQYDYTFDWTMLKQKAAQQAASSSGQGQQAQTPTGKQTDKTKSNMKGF
Summary of the method: as §1

[6] = target: T6, MKK6 (Homo sapiens, UniProt P52564)
T6 construct: purchased Reaction Biology Corp
T6 sequence (P52564 1-334): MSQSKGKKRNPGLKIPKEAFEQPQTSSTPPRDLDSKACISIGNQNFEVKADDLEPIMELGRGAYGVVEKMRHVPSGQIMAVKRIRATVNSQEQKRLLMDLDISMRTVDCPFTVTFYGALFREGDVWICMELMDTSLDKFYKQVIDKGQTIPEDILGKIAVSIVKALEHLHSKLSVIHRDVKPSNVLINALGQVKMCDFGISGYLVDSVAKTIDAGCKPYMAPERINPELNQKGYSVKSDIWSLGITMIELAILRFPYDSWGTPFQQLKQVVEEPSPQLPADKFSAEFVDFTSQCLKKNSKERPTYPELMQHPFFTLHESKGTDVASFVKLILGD
Summary of the method: as §1

[7] = read-out: % Enzyme Activity (relative to DMSO controls) Run 1
[8] = read-out: % Enzyme Activity (relative to DMSO controls) Run 2

T1 sequence (Q9NQU5 whole entry): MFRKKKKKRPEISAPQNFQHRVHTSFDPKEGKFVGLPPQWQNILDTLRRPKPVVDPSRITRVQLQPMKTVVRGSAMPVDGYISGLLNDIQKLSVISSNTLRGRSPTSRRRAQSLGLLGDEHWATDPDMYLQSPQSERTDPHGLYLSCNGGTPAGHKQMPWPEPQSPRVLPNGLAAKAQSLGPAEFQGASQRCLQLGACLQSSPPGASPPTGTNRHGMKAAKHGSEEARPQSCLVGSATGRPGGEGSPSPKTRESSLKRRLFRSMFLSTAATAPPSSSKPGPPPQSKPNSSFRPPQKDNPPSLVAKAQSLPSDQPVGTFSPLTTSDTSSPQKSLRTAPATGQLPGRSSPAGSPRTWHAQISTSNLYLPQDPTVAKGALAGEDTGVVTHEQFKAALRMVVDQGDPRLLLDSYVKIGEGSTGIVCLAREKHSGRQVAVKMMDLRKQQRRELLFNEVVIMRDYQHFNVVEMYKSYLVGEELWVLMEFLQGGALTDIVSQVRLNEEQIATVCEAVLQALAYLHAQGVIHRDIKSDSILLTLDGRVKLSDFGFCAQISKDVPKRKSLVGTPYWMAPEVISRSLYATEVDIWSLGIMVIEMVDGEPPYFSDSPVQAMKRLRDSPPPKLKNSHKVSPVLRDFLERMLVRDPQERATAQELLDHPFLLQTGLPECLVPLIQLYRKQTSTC

SMILES: C=CC(=O)Nc1cccc(Nc2nc(Nc3ccc(OCCOC)c(F)c3)ncc2F)c1 [Compound 2]
- inhibition at 3 µM [1]: 18%
- remaining activity at 3 µM [1, 7]: 79.3%
- remaining activity at 3 µM [1, 8]: 84.8%
- inhibition at 3 µM [2]: 1.86%
- remaining activity at 3 µM [2, 7]: 103%
- remaining activity at 3 µM [2, 8]: 93.5%
- inhibition at 3 µM [3]: 38.5%
- remaining activity at 3 µM [3, 7]: 61%
- remaining activity at 3 µM [3, 8]: 62.1%
- inhibition at 3 µM [4]: 10.3%
- remaining activity at 3 µM [4, 7]: 89.5%
- remaining activity at 3 µM [4, 8]: 89.8%
- inhibition at 3 µM [5]: -6.67%
- remaining activity at 3 µM [5, 7]: 108%
- remaining activity at 3 µM [5, 8]: 106%
- inhibition at 3 µM [6]: 3.11%
- remaining activity at 3 µM [6, 7]: 96.4%
- remaining activity at 3 µM [6, 8]: 97.4%
